Patent US20040010218A1, “Photodynamic therapy for the enhancement of vascular permeability to aid in drug delivery to diseased tissues” (priority 2002, published 2004)

System: murine Colo-26 tumors
Experiment: MR imaging of Colo-26 tumors 30 min after P-PDT
Type: in vivo
Details: P-PDT: 0.4 μmol/kg HPPH i.v., 24 h later 6 μmol/kg VBBO i.v., 3 h later 500 J/cm^2 at 619 nm; imaged 30 min after P-PDT; especially in the treated tumor
Description: FIG. 1 is a set of MR images of Colo-26 tumors taken 30 minutes after P-PDT to the tumor on the left of each image.
FIG. 1 illustrates the response of the vasculature in murine Colo-26 tumors to P-PDT. […] In this case, P-PDT involved i.v. injection of 0.4 μmol/kg HPPH (2-[1-hexyl-oxyethyl]-2-devinyl pyropheophoribde-a), followed 24 h later by i.v. injection of 6 μmol/kg VBBO (Victoria Blue-BO), followed 3 h later by local exposure of the tumor to 500 J/cm^2 of light at a wavelength of 619 nm. In Frame A, one can observe that the T2 weighted MRI image of the P-PDT treated tumor is markedly brighter than the control, which is believed to be due to increased water content because of enhanced edema and permeability in that tumor. Image intensity is further heightened by carbogen breathing as shown in Frame B of FIG. 1. […] Changes in signal intensity originate with the magnetic susceptibility of hemoglobin and are dependent on its oxygenation status. Oxyhemoglobin is diamagnetic, while deoxyhemoglobin is paramagnetic. The magnetic susceptibility differences between deoxyhemoglobin and surrounding tissue water create local field gradients that cause phase dispersion of nearby water protons, resulting in a loss of MR signal intensity. […]

CCCCCCOC(C)c1c(C)c2cc3nc(c4c5[nH]c(cc6nc(cc1[nH]2)C(C)=C6CC)c(C)c5C(=O)C4)[C@@H](CCC(=O)O)[C@@H]3C (stereo partly shown) [HPPH, 2-[1-hexyl-oxyethyl]-2-devinyl pyropheophoribde-a]
increase in MR image intensity during carbogen breathing: up to 40%
